US8710182B2, “Rapid glycopeptide optimization via neoglycosylation” (Wisconsin Alumni Research Foundation, priority 2006, dated 2014)

Test system: VRE
Conditions: preliminary testing

## 2′-N-acyldecanoyl-glucosyl vancomycin neoglycoside [compound 5]
  activity against VRE: significant activity
